Assay results taken from PMC7730638, “Liposomes Composed by Membrane Lipid Extracts from Macrophage Cell Line as a Delivery of the Trypanocidal N,N’-Squaramide 17 towards Trypanosoma cruzi” (Materials, 2020).
Values joined by “and” are separate entries in the source; they are usually repeats but may differ in a detail not shown here. Identical values can stand only once.

Experiments:
[1] = test system: Epimastigotes of T. cruzi; assay: Ultrastructural changes in epimastigotes (SEM); type: cell-based, Trypanosoma cruzi; details: half of IC50 (BZ 7.91 µM, S 6.56 µM), 72 h
Protocol: Epimastigotes of T. cruzi were grown at a density of 5 × 10^5 cells/mL in RPMI culture medium containing the compounds tested at concentrations of 7.91 µM (BZ), 6.56 µM (S), and 7.93 µM (MLS) corresponding to the half of IC50 of each compound. After 72 h these cultures were centrifuged at 1600× g for 10 min. Parasites were washed in PBS and fixed for 1 h at room temperature with 2% formaldehyde and 2.5% glutaraldehyde in sodium cacodylate buffer (0.1 M, pH 7.2). Samples were then washed in 0.1 M cacodylate buffer and adhered to coverslips previously coated with poly-L-lysine (Sigma Aldrich, St. Louis, MO, USA). After adhesion, post-fixation was performed using a solution of 1% OsO4 containing 0.8% potassium ferrocyanide (K4Fe (CN)6). Then, parasites were dehydrated in increasing concentrations of acetone (30%, 50%, 70%, 90%, and 100%), subject to critical-point drying, metalized with gold, and observed in a scanning electron microscope (SEM)- (JEOL JSM-7000F, Tokyo, Japan). Sample images were visualized using a 15 kV beam voltage.

[2] = Cytotoxicity in VERO cells (resazurin); type: cell-based; details: African green monkey, VERO cells (ATCC CCL81), 50 μM to 800 μM, read-out: VERO Cell CC50
Protocol: (§1) VERO (ATCC CCL81) and RAW 264.7 cells (ATCC TIB71) were maintained in RPMI-1640 supplemented with 10% fetal bovine serum (FBS) (Sigma Aldrich, St. Louis, MO, USA) without phenol red at 37 °C and 5% CO2 [14]. […] Trypomastigotes were obtained from monolayers of infected VERO cells grown at 37 °C in an atmosphere with 5% CO2 in RPMI-1640, pH 7.4, supplemented with 10% FBS and 100 μg/mL gentamicin.
(§2) The reference drug benznidazole (BZ) was dissolved in dimethyl sulfoxide (DMSO) at 5% (w/v) at 0.002 M (stock) and the final concentration of DMSO in the experiments never exceeded 0.25% (v/v) to not affect the cell viability. The MLV, MLS, and free S were dispersed or dissolved in deionized water. The final concentration of these treatments in the experiments never exceeded 0.01% (v/v). […] Thereafter, 20 μL of resazurin—(0.39 mM, Sigma Aldrich, St. Louis, MO, USA) was added to each well, followed by incubation for 2 h, and then fluorescence was read on a microplate reader SpectraMax M5 (570 nmex/595 nmem) (Molecular Devices, Sunnyvale, CA, USA). Percentage of cell viability was calculated using the equation below, where A is the arbitrary fluorescence units (AFU) of the treatments, B is AFU culture medium with resazurin and C is AFU of the control group. […]

[3] = test system: T. cruzi (strain CL-Brener) epimastigote; assay: Trypanocidal activity on epimastigotes (resazurin); type: cell-based; details: Trypanosoma cruzi; 6.25 μM to 100 μM, 72 h
Protocol: (§3) VERO (ATCC CCL81) and RAW 264.7 cells (ATCC TIB71) were maintained in RPMI-1640 supplemented with 10% fetal bovine serum (FBS) (Sigma Aldrich, St. Louis, MO, USA) without phenol red at 37 °C and 5% CO2 [14]. […] Trypomastigotes were obtained from monolayers of infected VERO cells grown at 37 °C in an atmosphere with 5% CO2 in RPMI-1640, pH 7.4, supplemented with 10% FBS and 100 μg/mL gentamicin. […] Then, 2.5 × 10^5 epimastigotes/mL were resuspended in 150 μL and added to the microplates. After 48 h, resazurin was added (20 μL/well of resazurin −3 mM), incubated for further 24 h, and fluorescence was recorded as described above. Nanostructures’ effect on amastigotes was accessed in VERO cell line grown in RPMI medium containing 10% FBS and seeded at a density of 1 × 10^4 cells/well in 24-well microplates. […] Cells were fixed and stained with Kit for Fast Staining in Haematology (Figure S2), and the number of amastigotes was determined by counting 200 cells for each experimental group distributed in random microscopic fields. The IC50 values were determined by nonlinear regression in GraphPad Prism version 7.0 (GraphPad Software, San Diego, CA, USA). Selectivity indices (SI) were calculated using the formula: SI = CC50 cytotoxicity in VERO cells/IC50 cytotoxicity in intracellular amastigotes.

[4] = Cytotoxicity in RAW 264.7 macrophages (resazurin); type: cell-based; details: mouse, RAW 264.7 macrophages (ATCC TIB71), 50 μM to 800 μM, read-out: RAW 264.7 Macrophage CC50
Protocol: as §1, §2

[5] = test system: T. cruzi intracellular amastigotes; assay: Trypanocidal activity on intracellular amastigotes in infected VERO cells (counting of stained cells); type: cell-based; details: Trypanosoma cruzi, 6.25 μM to 100 μM, 72 h
Protocol: as §3

[6] = Entrapment efficiency (filtration, absorbance at 320 nm); type: physicochemical; details: for Entrapment efficiency: mean of triplicate, 320 nm
Protocol: The MLS nanostructures were evaluated in terms of drug entrapment efficiency (EE), established as a ratio between the encapsulation (ED) over the initial quantity of the drug (ID), according to the Equation (1) below: (1) EE %=ED mg/ID mg×100 For the determination of EE, the S-loaded nanostructures were filtrated in 100 kDa Amicon filters (Amicon® Ultra 0.5 mL centrifuge filters - Millipore, Darmstadt, Germany) at 300× g for 10 min, 4 °C [17]. Unentrapped drug (filtered content) was collected and the absorbance was measured at 320 nm using a biophotometer (Eppendorf BioPhotometer® 6131, Hamburg, Germany) (Figure S1). […] Experiments were performed in triplicates.

[7] = test system: Trypanosoma cruzi; design: method as in PMID 24410674; details: acute phase, mice, after 40 days of treatment, compared to control; cited from earlier work
[8] = cited from earlier work

With O=C(Cn1ccnc1[N+](=O)[O-])NCc1ccccc1 [BZ, benznidazole, reference compound] the “Morphological alterations in epimastigotes” value [1] was “prominences in the cell body and distortion in the flagellum”, the CC50 at 72 h [2] was 284.4 ± 1.25 µM and the IC50 [3] was 15.8 ± 4.63 µM. The CC50 at 72 h [4] was 554.8 ± 4.9 µM and the IC50 [5] was 4.76 ± 4.45 µM.

In the case of CCCCNc1c(N(C)CCCN(C)C)c(=O)c1=O [S, N, N’-Squaramide 17], the “Morphological alterations in epimastigotes” value [1] is reported as “a protuberance on the cell”, the CC50 at 72 h [2] is reported as 736.2 ± 1.23 µM and the IC50 [3] is reported as 13.1 ± 5.12 µM. For the same compound, the Entrapment efficiency [6] was 73.35% ± 2.05%, the Entrapment efficiency ([6]; listed as N, N’-Squaramide 17) was 73.35% and the “Entrapment efficiency, single replicates” value ([6]; replicates 1-3, 320 nm, listed as N, N’-Squaramide 17) was 75.71% and 72.07% and 72.35%. The Reduction of parasitemia [7] was 67%, the CC50 at 72 h [4] was 1654 ± 5.2 µM and the IC50 [5] was 51.2 ± 4.91 µM. For the same compound, the “Partition coefficient log P” value [8] was 0.59.
